The source of these data is patent US10696677B2 (Research Triangle Institute, priority 2016, dated 2020).

Each structure is given as a SMILES string. Like-named read-outs stand apart in the source and are kept apart here.

In series [1] the target is T1, hCB1 (Homo sapiens, UniProt P21554). As to the kind of experiment: functional fluorescent CB1 activated Gαq16-coupled intracellular calcium mobilization assay in CHO-K1 cells. It is filed as cell-based. Also noted: expressed in transfected cells; host or cells: CHO-K1 (membranes). Particulars: average of 3-6 measurements, read-out: Apparent antagonist dissociation constant (Ke) at hCB1. (Calcium flux is commonly read through the fluorescence of an indicator in the cells.)

The test system of another series is MDCK. The series can be described thus: MDCK BBB Assay. It is filed as in vitro ADME. As to conditions: for % Permeable: MDCK BBB assay; for MDCK BBB Assay (Basolateral/Apical Peak Area Ratio) Mean: MDCK cells.
Series [2] concerns the target T1, hCB1. The series can be described thus: radioligand displacement binding at CB1 (membranes of CHO-K1 cells over-expressing receptor). As to conditions: for CB2 Ki/CB1 Ki selectivity ratio: CB1 versus CB2. A general note: Loss of bound radioactivity is the signal in a displacement assay; it reports binding, not function.
Protocol: (§1) All compounds were characterized by H^1 NMR and evaluated using a calcium mobilization assay. […] Further characterization of select compounds was performed using radioligand displacement of [3H]1 and equilibrium dissociation constant (Ki) values were determined.
Another series deals with hCB2 (Homo sapiens, UniProt P34972). As to the kind of experiment: radioligand displacement binding at CB2 ([3H]CP55940, membranes of CHO-K1 cells over-expressing receptor).
The mark [3] stands for this setting: read-out: Binding affinity (Ki) at hCB1, radioligand displacement, CHO-K1 membranes, average of 3-6 measurements.
Where [4] appears, read: read-out: Binding affinity (Ki) at hCB2, displacement of [3H]CP55940, CHO-K1 membranes, average of 3-6 measurements.

T1 sequence (P21554 whole entry): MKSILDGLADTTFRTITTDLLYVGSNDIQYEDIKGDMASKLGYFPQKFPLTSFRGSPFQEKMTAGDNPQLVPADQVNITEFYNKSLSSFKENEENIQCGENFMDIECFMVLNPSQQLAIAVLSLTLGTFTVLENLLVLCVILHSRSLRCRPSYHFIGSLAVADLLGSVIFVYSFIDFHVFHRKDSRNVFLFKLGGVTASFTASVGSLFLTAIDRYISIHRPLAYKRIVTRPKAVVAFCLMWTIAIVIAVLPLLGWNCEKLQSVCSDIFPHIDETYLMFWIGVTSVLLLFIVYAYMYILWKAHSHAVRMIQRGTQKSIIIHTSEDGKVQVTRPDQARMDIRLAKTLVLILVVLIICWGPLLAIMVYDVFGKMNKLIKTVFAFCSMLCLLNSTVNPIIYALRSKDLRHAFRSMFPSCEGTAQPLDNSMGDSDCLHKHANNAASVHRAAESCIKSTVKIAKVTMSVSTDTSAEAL
Chain of hCB2 (P34972 whole entry): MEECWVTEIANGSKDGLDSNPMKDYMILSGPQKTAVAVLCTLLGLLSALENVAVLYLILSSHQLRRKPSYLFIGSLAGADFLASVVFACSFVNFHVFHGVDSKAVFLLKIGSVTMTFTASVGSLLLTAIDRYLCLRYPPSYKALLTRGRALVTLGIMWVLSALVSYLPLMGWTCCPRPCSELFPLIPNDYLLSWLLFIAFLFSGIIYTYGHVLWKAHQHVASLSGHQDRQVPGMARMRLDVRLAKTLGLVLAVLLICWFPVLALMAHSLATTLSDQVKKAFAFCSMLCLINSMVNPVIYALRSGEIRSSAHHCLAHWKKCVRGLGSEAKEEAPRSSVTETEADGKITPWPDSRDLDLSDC
Protocol for hCB2: as §1

In general, melting point refers to the temperature of the solid-liquid transition. Compound `O=S(=O)(NC1CCN(c2ncnc3c2nc(-c2ccccc2Cl)n3-c2ccc(Cl)cc2)CC1)c1ccccc1F` [Compound 1, N-{1-[8-(2-Chlorophenyl)-9-(4-chlorophenyl)-9H-purin-6-yl]piperidin-4-yl}-2-fluorobenzene-1-sulfonamide] yielded a melting point of 185 to 187 °C. Further, the Kb on hCB1 [1] worked out at 0.0001 µM.

The Ki is the equilibrium dissociation constant of an inhibitor or competing ligand from its target. For `N#Cc1ccc(N2CCN(c3ncnc4c3nc(-c3ccccc3Cl)n4-c3ccc(Cl)cc3)CC2)nc1` [Compound 3, 6-{4-[8-(2-Chlorophenyl)-9-(4-chlorophenyl)-9H-purin-6-yl]piperazin-1-yl}pyridine-3-carbonitrile], in the series on MDCK, the “% Permeable” value is recorded as 1% and the “MDCK BBB Assay (Basolateral/Apical Peak Area Ratio) Mean” value came out at 0.005. On hCB1 [1], the Kb stood at 0.0113 µM. In addition, on hCB1 [2], the Ki came to 0.0048 µM and the “CB2 Ki/CB1 Ki selectivity ratio” value turned out to be 101. In addition, at hCB2, affinity was put at a Ki of 0.484 µM.

In the case of `O=S(=O)(NC1CCN(c2ncnc3c2nc(-c2ccccc2Cl)n3-c2ccc(Cl)cc2)CC1)c1ccc(F)cc1` [Compound 4, N-{1-[8-(2-Chlorophenyl)-9-(4-chlorophenyl)-9H-purin-6-yl]piperidin-4-yl}-4-fluorobenzene-1-sulfonamide], the melting point was in the range of 196 to 197 °C. Moreover, in the series with MDCK, the “% Permeable” value was found to be 0% and the “MDCK BBB Assay (Basolateral/Apical Peak Area Ratio) Mean” value is listed as 0.0006. The Kb at hCB1 [1] came out at 0.0011 µM.

For `Cn1cc(-n2c(-c3ccccc3Cl)nc3c(N4CCC(NS(=O)(=O)c5ccc(F)c(F)c5)CC4)ncnc32)cn1` [Compound 12, N-{1-[8-(2-Chlorophenyl)-9-(1-methyl-1H-pyrazol-4-yl)-9H-purin-6-yl]piperidin-4-yl}-3,4-difluorobenzene-1-sulfonamide], the melting point lay within 162 to 164 °C. For the same compound, the Kb on hCB1 [1] was determined as 0.14 µM.

With `O/N=C(/c1ccc(F)cc1)C1CCN(c2ncnc3c2nc(-c2ccccc2Cl)n3-c2ccc(Cl)cc2)CC1` [Compound 29, (E)-{1-[8-(2-chlorophenyl)-9-(4-chlorophenyl)-9H-purin-6-yl]piperidin-4-yl}(4-fluorophenyl)methanone oxime], the Kb on hCB1 [1] came out at 0.021 µM. Further, affinity on hCB1 [2] was put at a Ki of 0.004 µM.

As for `Clc1ccc(-n2c(-c3ccccc3Cl)nc3c(N4CCC(c5nc6ccccc6[nH]5)CC4)ncnc32)cc1` [Compound 30, 6-[4-(1H-benzimidazol-2-yl)piperidin-1-yl]-8-(2-chlorophenyl)-9-(4-chlorophenyl)-9H-purine], the Kb at hCB1 [1] is 0.012 µM. For the same compound, the Ki at hCB1 [2] (setting [3]) amounted to 0.047 µM.

On to `Clc1ccc(-n2c(-c3ccccc3Cl)nc3c(N4CCC(Nc5ccccc5)CC4)ncnc32)cc1` [Compound 31, 1-[8-(2-chlorophenyl)-9-(4-chlorophenyl)-9H-purin-6-yl]-N-phenylpiperidin-4-amine], for which, in the series on MDCK, the “% Permeable” value is 0% and the “MDCK BBB Assay (Basolateral/Apical Peak Area Ratio) Mean” value came out at 0. The Kb at hCB1 [1] amounted to 0.0014 µM.

For `Clc1ccc(-n2c(-c3ccccc3Cl)nc3c(N4CCC(Nc5ccccn5)CC4)ncnc32)cc1` [Compound 32, N-{1-[8-(2-chlorophenyl)-9-(4-chlorophenyl)-9H-purin-6-yl]piperidin-4-yl}pyridin-2-amine], in the series on MDCK, the “% Permeable” value is recorded as 0% and the “MDCK BBB Assay (Basolateral/Apical Peak Area Ratio) Mean” value was found to be 0.001. In addition, the Kb on hCB1 [1] worked out at 0.054 µM. Also, at hCB1 [2], the Ki is 0.002 µM and the “CB2 Ki/CB1 Ki selectivity ratio” value was found to be 2300. In addition, on hCB2, the Ki is 4.6 µM.

`CN(Cc1ccccc1)C1CCN(c2ncnc3c2nc(-c2ccccc2Cl)n3-c2ccc(Cl)cc2)CC1` [Compound 39, N-benzyl-1-[8-(2-chlorophenyl)-9-(4-chlorophenyl)-9H-purin-6-yl]-N-methylpiperidin-4-amine]: the Kb on hCB1 [1] amounted to 0.106 µM. At hCB1 [2], the “CB2 Ki/CB1 Ki selectivity ratio” value is reported as 98. Besides, the results for the Ki on hCB1 [2] (setting [3]) and at hCB2 were 0.042 µM and 4.1 µM, respectively.

Regarding `O=C(Nc1ccccc1)N1CCN(c2ncnc3c2nc(-c2ccccc2Cl)n3-c2ccc(C(F)(F)F)nc2)CC1` [Compound 45], on hCB1 [1], the Kb turned out to be 0.008 µM. Besides, on hCB1 [2], the Ki stood at 0.039 µM and the “CB2 Ki/CB1 Ki selectivity ratio” value was determined as 30. The compound also showed a Ki on hCB2 of 0.79 µM.

Take `FC(F)(F)c1ccc(-n2c(-c3ccccc3Cl)nc3c(N4CCN(Cc5ccccc5Cl)CC4)ncnc32)cn1` [Compound 47, 8-(2-Chlorophenyl)-6-{4-[(2-chlorophenyl)methyl]piperazin-1-yl}-9-[6-(trifluoromethyl)pyridin-3-yl]-9H-purine]: the melting point was in the range of 189 to 190 °C. For the same compound, on hCB1 [1], the Kb was 0.14 µM.

In the case of `NC(=O)c1ccc(-n2c(-c3ccccc3Cl)nc3c(N4CCN(Cc5ccccc5Cl)CC4)ncnc32)cc1` [Compound 48, 4-[8-(2-chlorophenyl)-6-{4-[(2-chlorophenyl)methyl]piperazin-1-yl}-9H-purin-9-yl]benzamide], the melting point was in the range of 120 to 122 °C. Also, the Kb on hCB1 [1] came to 0.44 µM.

For the compound `Cc1cc(-n2c(-c3ccccc3Cl)nc3c(N4CCN(Cc5ccccc5Cl)CC4)ncnc32)no1` [Compound 49, 8-(2-chlorophenyl)-6-{4-[(2-chlorophenyl)methyl]piperazin-1-yl}-9-(5-methyl-1,2-oxazol-3-yl)-9H-purine], the melting point lay in the range of 79 to 81 °C. Moreover, on hCB1 [1], the Kb stood at 0.32 µM.

In turn, `Cn1ccc(-n2c(-c3ccccc3Cl)nc3c(N4CCN(Cc5ccccc5Cl)CC4)ncnc32)n1` [Compound 51, 8-(2-Chlorophenyl)-6-{4-[(2-chlorophenyl)methyl]piperazin-1-yl}-9-(1-methyl-1H-pyrazol-3-yl)-9H-purine] had a melting point of 150 to 152 °C. The Kb at hCB1 [1] came out at 0.38 µM.

Turning to `CCCCC(=O)NC1(c2ccccc2)CCN(c2ncnc3c2nc(-c2ccncc2)n3-c2ccc(Cl)cc2)CC1` [Compound 55, N-{1-[9-(4-chlorophenyl)-8-pyridin-4-yl-9H-purin-6-yl]-4-phenylpiperidin-4-yl}pentanamide], the Kb at hCB1 [1] was determined as 0.869 µM. Also, at hCB1 [2], the affinity, expressed as Ki, was 0.272 µM and the “CB2 Ki/CB1 Ki selectivity ratio” value is given as 5.8. At hCB2, this compound had an inhibition constant Ki of 1.57 µM.

In the case of `Clc1ccc(-n2c(-c3ccccc3Cl)nc3c(N4CCN(c5ccc(OCc6ccccc6)cc5)CC4)ncnc32)cc1` [Compound 65, 6-{4-[4-(Benzyloxy)phenyl]piperazin-1-yl}-8-(2-chlorophenyl)-9-(4-chlorophenyl)-9H-purine], in the series with MDCK, the “% Permeable” value came to 8% and the “MDCK BBB Assay (Basolateral/Apical Peak Area Ratio) Mean” value was 0.082. Further, the Kb on hCB1 [1] is 0.0116 µM. Further, on hCB1 [2], the affinity corresponds to a Ki of 0.0047 µM. At hCB2 (displacement of [3H]CP55940, CHO-K1 membranes, average of 3-6 measurements), the “Binding affinity (Ki) at hCB2” value was “inactive”.

For the compound `CC(C)S(=O)(=O)N1CCN(c2ncnc3c2nc(-c2ccccc2Cl)n3-c2ccc(Cl)cc2)CC1` [Compound 80, 8-(2-Chlorophenyl)-9-(4-chlorophenyl)-6-{4-[(1-methylethyl)sulfonyl]piperazin-1-yl}-9H-purine], in the series with MDCK, the “% Permeable” value worked out at 0% and the “MDCK BBB Assay (Basolateral/Apical Peak Area Ratio) Mean” value was found to be 0.000. In addition, the Kb on hCB1 [1] was 0.0015 µM. The Ki on hCB1 [2] (setting [3]) came to 0.0014 µM. Further, the Ki on hCB2 (setting [4]) came to 0.978 µM.

For the compound `CCCCS(=O)(=O)N1CCN(c2ncnc3c2nc(-c2ccccc2Cl)n3-c2ccc(Cl)cc2)CC1` [Compound 81, 8-(2-Chlorophenyl)-9-(4-chlorophenyl)-6-[4-(butylsulfonyl)piperazin-1-yl]-9H-purine], in the series on MDCK, the “% Permeable” value came to 5% and the “MDCK BBB Assay (Basolateral/Apical Peak Area Ratio) Mean” value stood at 0.053. Also, the Kb at hCB1 [1] was 0.0004 µM. The “CB2 Ki/CB1 Ki selectivity ratio” value at hCB1 [2] was found to be 871. The Ki at hCB1 [2] (setting [3]) was found to be 0.0006 µM. For the same compound, at hCB2 (setting [4]), the Ki turned out to be 0.505 µM.

Turning to `CC(C)CS(=O)(=O)N1CCN(c2ncnc3c2nc(-c2ccccc2Cl)n3-c2ccc(Cl)cc2)CC1` [Compound 82, 8-(2-Chlorophenyl)-9-(4-chlorophenyl)-6-{4-[(2-methylpropyl)sulfonyl]piperazin-1-yl}-9H-purine], the “% Permeable” value in the series on MDCK is given as 0%. Besides, the Kb on hCB1 [1] came to 0.0002 µM. The Ki on hCB1 [2] (setting [3]) came out at 0.002 µM; on hCB2, 2.84 µM.

Regarding `CCCCC(=O)NC1CCN(c2ncnc3c2nc(-c2ccncc2C)n3-c2ccc(Cl)cc2)CC1` [Compound 90, N-{1-[9-(4-chlorophenyl)-8-(3-methylpyridin-4-yl)-9H-purin-6-yl]piperidin-4-yl}pentanamide], in the series with MDCK, the “% Permeable” value stood at 38% and the “MDCK BBB Assay (Basolateral/Apical Peak Area Ratio) Mean” value is on record as 0.379. Moreover, the Kb on hCB1 [1] is 0.0422 µM. At hCB1 [2], affinity was put at a Ki of 0.0121 µM and the “CB2 Ki/CB1 Ki selectivity ratio” value amounted to 51. This compound had a Ki at hCB2 of 0.62 µM.

For `CCCCC(=O)NC1CCN(c2ncnc3c2nc(-c2ccncc2Cl)n3-c2ccc(Cl)cc2)CC1` [Compound 91, N-{1-[9-(4-chlorophenyl)-8-(3-chloropyridin-4-yl)-9H-purin-6-yl]piperidin-4-yl}pentanamide], in the series on MDCK, the “% Permeable” value turned out to be 41% and the “MDCK BBB Assay (Basolateral/Apical Peak Area Ratio) Mean” value amounted to 0.409. At hCB1 [1], the Kb came to 0.0278 µM. Besides, on hCB1 [2], the Ki worked out at 0.0092 µM and the “CB2 Ki/CB1 Ki selectivity ratio” value amounted to 126. This compound also displayed a Ki on hCB2 of 1.15 µM.

As to `Clc1ccc(-n2c(-c3ccccc3Cl)nc3c(N4CCN(c5nc6ccccc6[nH]5)CC4)ncnc32)cc1` [Compound 123, 6-[4-(1H-benzimidazol-2-yl)piperazin-1-yl]-8-(2-chlorophenyl)-9-(4-chlorophenyl)-9H-purine], on hCB1 [1], the Kb was found to be 0.053 µM.
